Read-outs that look alike come from different tables or passages of the source. Starred links: 1 amine or outer side, 2 acyl side, 3 side chain; linkers in the order of their positions; H or OH if unused. Non-standard residues stand in square brackets, D forms with d. Residues, ends and D or L forms follow the SMILES beside them. *: point of attachment. X10 = NC(=O)CC[C@H](CN[*:1])C(=O)[*:2]; X6 = O=C(O)CC[C@H](CN[*:1])C(=O)[*:2]; X11 = NC[C@H](CO)C(=O)*; X8 = NC[C@@H](CO)C(=O)*
How the values were obtained:
PTHR1 = target: T1, PTHR1 (Homo sapiens, UniProt Q03431); experiment: PTHR1 activation, cAMP production (GloSensor) in HEK293 cells; format: cell-based; parameters: expressed in transfected cells; conditions: for PTHR1 Activation: Derivative EC50/PTH EC50: normalized to EC50 of PTH(1-34)-NH2 ([…]), cAMP production
T1 sequence (Q03431 27-593): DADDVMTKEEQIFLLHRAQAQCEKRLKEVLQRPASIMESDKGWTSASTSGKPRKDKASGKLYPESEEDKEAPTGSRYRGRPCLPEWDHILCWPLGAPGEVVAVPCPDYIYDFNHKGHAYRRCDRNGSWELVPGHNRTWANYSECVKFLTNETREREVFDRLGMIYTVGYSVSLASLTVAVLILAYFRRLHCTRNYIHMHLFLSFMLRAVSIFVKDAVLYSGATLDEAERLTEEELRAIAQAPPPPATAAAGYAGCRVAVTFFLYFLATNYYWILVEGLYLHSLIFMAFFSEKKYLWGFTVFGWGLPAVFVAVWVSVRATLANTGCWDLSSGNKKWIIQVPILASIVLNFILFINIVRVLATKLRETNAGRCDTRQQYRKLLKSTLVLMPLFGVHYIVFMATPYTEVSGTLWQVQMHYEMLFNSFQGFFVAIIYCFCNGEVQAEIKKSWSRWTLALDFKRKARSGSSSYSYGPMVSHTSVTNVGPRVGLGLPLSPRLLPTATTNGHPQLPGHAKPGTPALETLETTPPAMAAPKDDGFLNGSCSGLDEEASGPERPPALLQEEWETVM
Excerpt: The assays employ HEK-293 cells that have been engineered to express the appropriate receptor. GloSensor-based detection of cAMP provides a read-out of receptor activation.
(§1) For PTHR1 activation and all the binding data, data represent mean±s.e.m from three independent measurements; For PTHR2 activation, data represent mean±s.e.m from four independent measurements. Curves were fit to the data using a four-parameter sigmoidal dose-response equation.
For cAMP dose-response assays, monolayers of confluent HEK 293 cells were pre-incubated with buffer containing d-luciferin (0.5 mM) in 96 well plates at room temperature until a stable baseline level of luminescence was established (30 min). Varying concentrations of agonist were then added, and the time course of luminescence response was recorded using a Perkin Elmer plate reader following α/β-peptide addition.

PTHR2 = PTHR2 (Homo sapiens, UniProt P49190); experiment: PTHR2 activation, cAMP production (GloSensor) in HEK293 cells; format: cell-based; parameters: expressed in transfected cells; key to PTHR2 Activation: Derivative EC50/PTH EC50: *** denotes poor tolerance of β amino acid for PTHR2 activation; conditions: for EC50: HEK-293 cells, GloSensor cAMP, read-out: EC50 (nM) of PTHR2 Activation; for PTHR2 Activation: Derivative EC50/PTH EC50: normalized to EC50 of PTH(1-34)-NH2 ([…] printed), cAMP production
Excerpt: The assays employ HEK-293 cells that have been engineered to express the appropriate receptor. GloSensor-based detection of cAMP provides a read-out of receptor activation. […] (Carter, P. H. et al. Actions of the Small Molecule Ligands SW106 and AH-3960 on the Type-1 Parathyroid Hormone Receptor. Molecular Endocrinology 29, 307-321 (2015).)
as §1, with “FIGS. 10A and 10B depict dose-response curves of PTHR1 activation (FIG. 10A) and PTHR2 activation (FIG. 10B) in HEK293 cells stably expressing PTHR1 or PTHR2. For PTHR1” for “For PTHR1”

[1] = HEK-293 cells, GloSensor cAMP, read-out: EC50 (nM) of PTHR1 Activation

Sequence of PTHR2 (P49190 25-550): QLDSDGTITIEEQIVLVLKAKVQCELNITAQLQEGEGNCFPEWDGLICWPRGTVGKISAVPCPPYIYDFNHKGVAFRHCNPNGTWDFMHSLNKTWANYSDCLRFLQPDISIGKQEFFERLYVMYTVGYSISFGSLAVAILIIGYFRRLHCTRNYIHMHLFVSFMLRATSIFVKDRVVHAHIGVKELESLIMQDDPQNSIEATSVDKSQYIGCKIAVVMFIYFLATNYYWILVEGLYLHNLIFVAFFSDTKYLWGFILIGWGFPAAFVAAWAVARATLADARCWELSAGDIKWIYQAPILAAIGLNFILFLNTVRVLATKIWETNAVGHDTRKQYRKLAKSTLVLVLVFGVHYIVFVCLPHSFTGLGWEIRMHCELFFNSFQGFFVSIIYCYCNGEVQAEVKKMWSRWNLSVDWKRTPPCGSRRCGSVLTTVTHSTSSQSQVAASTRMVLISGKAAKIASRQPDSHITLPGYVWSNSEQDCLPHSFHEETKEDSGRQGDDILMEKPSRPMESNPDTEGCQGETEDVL

SMILES	EC50 (PTHR1; [1])	EC50 (PTHR2)	PTHR1 Activation: Derivative EC50/PTH EC50 (PTHR1)	PTHR2 Activation: Derivative EC50/PTH EC50 (PTHR2)	EC50 (PTHR1; Table 8, hPTHR1, read-out: PTHR1 EC50)
CC[C@H](C)[C@H](NC(=O)[C@H](CCC(=O)O)NC(=O)[C@H](CO)NC(=O)[C@@H](NC(=O)[C@@H](CN)CO)C(C)C)C(=O)N[C@@H](CCC(N)=O)C(=O)N[C@@H](CC(C)C)C(=O)N[C@@H](CCSC)C(=O)N[C@@H](Cc1c[nH]cn1)C(=O)N[C@@H](CC(N)=O)C(=O)N[C@@H](CC(C)C)C(=O)NCC(=O)N[C@@H](CCCCN)C(=O)N[C@@H](Cc1c[nH]cn1)C(=O)N[C@@H](CC(C)C)C(=O)N[C@@H](CC(N)=O)C(=O)N[C@@H](CO)C(=O)N[C@@H](CCSC)C(=O)N[C@@H](CCC(=O)O)C(=O)N[C@@H](CCCNC(=N)N)C(=O)N[C@H](C(=O)N[C@@H](CCC(=O)O)C(=O)N[C@@H](Cc1c[nH]c2ccccc12)C(=O)N[C@@H](CC(C)C)C(=O)N[C@@H](CCCNC(=N)N)C(=O)N[C@@H](CCCCN)C(=O)N[C@@H](CCCCN)C(=O)N[C@@H](CC(C)C)C(=O)N[C@@H](CCC(N)=O)C(=O)N[C@@H](CC(=O)O)C(=O)N[C@H](C(=O)N[C@@H](Cc1c[nH]cn1)C(=O)N[C@@H](CC(N)=O)C(=O)N[C@@H](Cc1ccccc1)C(N)=O)C(C)C)C(C)C [SEQ. ID. NO: 22] (X8-VSEIQLMHNLGKHLNSMERVEWLRKKLQDVHNF-NH2)	0.35 ± 0.06 nM	5.97 ± 1.21 nM			
CC[C@H](C)[C@H](NC(=O)[C@H](CCC(=O)O)CNC(=O)[C@H](CO)NC(=O)[C@@H](NC(=O)[C@@H](N)CO)C(C)C)C(=O)N[C@@H](CCC(N)=O)C(=O)N[C@@H](CC(C)C)C(=O)N[C@@H](CCSC)C(=O)N[C@@H](Cc1c[nH]cn1)C(=O)N[C@@H](CC(N)=O)C(=O)N[C@@H](CC(C)C)C(=O)NCC(=O)N[C@@H](CCCCN)C(=O)N[C@@H](Cc1c[nH]cn1)C(=O)N[C@@H](CC(C)C)C(=O)N[C@@H](CC(N)=O)C(=O)N[C@@H](CO)C(=O)N[C@@H](CCSC)C(=O)N[C@@H](CCC(=O)O)C(=O)N[C@@H](CCCNC(=N)N)C(=O)N[C@H](C(=O)N[C@@H](CCC(=O)O)C(=O)N[C@@H](Cc1c[nH]c2ccccc12)C(=O)N[C@@H](CC(C)C)C(=O)N[C@@H](CCCNC(=N)N)C(=O)N[C@@H](CCCCN)C(=O)N[C@@H](CCCCN)C(=O)N[C@@H](CC(C)C)C(=O)N[C@@H](CCC(N)=O)C(=O)N[C@@H](CC(=O)O)C(=O)N[C@H](C(=O)N[C@@H](Cc1c[nH]cn1)C(=O)N[C@@H](CC(N)=O)C(=O)N[C@@H](Cc1ccccc1)C(N)=O)C(C)C)C(C)C [SEQ. ID. NO: 25] (H-SVS[X6]IQLMHNLGKHLNSMERVEWLRKKLQDVHNF-NH2; N-terminus assumed)	22.9 ± 1.89 nM	> 1000 nM	60.26	***	
CC[C@H](C)[C@H](NC(=O)[C@H](CCC(=O)O)NC(=O)[C@H](CO)NC(=O)[C@@H](NC(=O)[C@@H](N)CO)C(C)C)C(=O)NC[C@@H](CCC(N)=O)C(=O)N[C@@H](CC(C)C)C(=O)N[C@@H](CCSC)C(=O)N[C@@H](Cc1c[nH]cn1)C(=O)N[C@@H](CC(N)=O)C(=O)N[C@@H](CC(C)C)C(=O)NCC(=O)N[C@@H](CCCCN)C(=O)N[C@@H](Cc1c[nH]cn1)C(=O)N[C@@H](CC(C)C)C(=O)N[C@@H](CC(N)=O)C(=O)N[C@@H](CO)C(=O)N[C@@H](CCSC)C(=O)N[C@@H](CCC(=O)O)C(=O)N[C@@H](CCCNC(=N)N)C(=O)N[C@H](C(=O)N[C@@H](CCC(=O)O)C(=O)N[C@@H](Cc1c[nH]c2ccccc12)C(=O)N[C@@H](CC(C)C)C(=O)N[C@@H](CCCNC(=N)N)C(=O)N[C@@H](CCCCN)C(=O)N[C@@H](CCCCN)C(=O)N[C@@H](CC(C)C)C(=O)N[C@@H](CCC(N)=O)C(=O)N[C@@H](CC(=O)O)C(=O)N[C@H](C(=O)N[C@@H](Cc1c[nH]cn1)C(=O)N[C@@H](CC(N)=O)C(=O)N[C@@H](Cc1ccccc1)C(N)=O)C(C)C)C(C)C [SEQ. ID. NO: 27] (H-SVSEI[X10]LMHNLGKHLNSMERVEWLRKKLQDVHNF-NH2; N-terminus assumed)	7.83 ± 0.4 nM	51.9 ± 8.82 nM	20.61	59.70	
CC[C@H](C)[C@H](NC(=O)[C@H](CCC(=O)O)NC(=O)[C@H](CO)NC(=O)[C@@H](NC(=O)[C@H](CN)CO)C(C)C)C(=O)N[C@@H](CCC(N)=O)C(=O)N[C@@H](CC(C)C)C(=O)N[C@@H](CCSC)C(=O)N[C@@H](Cc1c[nH]cn1)C(=O)N[C@@H](CC(N)=O)C(=O)N[C@@H](CC(C)C)C(=O)NCC(=O)N[C@@H](CCCCN)C(=O)N[C@@H](Cc1c[nH]cn1)C(=O)N[C@@H](CC(C)C)C(=O)N[C@@H](CC(N)=O)C(=O)N[C@@H](CO)C(=O)N[C@@H](CCSC)C(=O)N[C@@H](CCC(=O)O)C(=O)N[C@@H](CCCNC(=N)N)C(=O)N[C@H](C(=O)N[C@@H](CCC(=O)O)C(=O)N[C@@H](Cc1c[nH]c2ccccc12)C(=O)N[C@@H](CC(C)C)C(=O)N[C@@H](CCCNC(=N)N)C(=O)N[C@@H](CCCCN)C(=O)N[C@@H](CCCCN)C(=O)N[C@@H](CC(C)C)C(=O)N[C@@H](CCC(N)=O)C(=O)N[C@@H](CC(=O)O)C(=O)N[C@H](C(=O)N[C@@H](Cc1c[nH]cn1)C(=O)N[C@@H](CC(N)=O)C(=O)N[C@@H](Cc1ccccc1)C(N)=O)C(C)C)C(C)C [SEQ. ID. NO: 30] (X11-VSEIQLMHNLGKHLNSMERVEWLRKKLQDVHNF-NH2)					1.55 ± 0.3 nM
CC[C@H](C)[C@H](NC(=O)C[C@H](CCC(=O)O)NC(=O)[C@H](CO)NC(=O)[C@@H](NC(=O)[C@@H](N)CO)C(C)C)C(=O)N[C@@H](CCC(N)=O)C(=O)N[C@@H](CC(C)C)C(=O)N[C@@H](CCSC)C(=O)N[C@@H](Cc1c[nH]cn1)C(=O)N[C@@H](CC(N)=O)C(=O)N[C@@H](CC(C)C)C(=O)NCC(=O)N[C@@H](CCCCN)C(=O)N[C@@H](Cc1c[nH]cn1)C(=O)N[C@@H](CC(C)C)C(=O)N[C@@H](CC(N)=O)C(=O)N[C@@H](CO)C(=O)N[C@@H](CCSC)C(=O)N[C@@H](CCC(=O)O)C(=O)N[C@@H](CCCNC(=N)N)C(=O)N[C@H](C(=O)N[C@@H](CCC(=O)O)C(=O)N[C@@H](Cc1c[nH]c2ccccc12)C(=O)N[C@@H](CC(C)C)C(=O)N[C@@H](CCCNC(=N)N)C(=O)N[C@@H](CCCCN)C(=O)N[C@@H](CCCCN)C(=O)N[C@@H](CC(C)C)C(=O)N[C@@H](CCC(N)=O)C(=O)N[C@@H](CC(=O)O)C(=O)N[C@H](C(=O)N[C@@H](Cc1c[nH]cn1)C(=O)N[C@@H](CC(N)=O)C(=O)N[C@@H](Cc1ccccc1)C(N)=O)C(C)C)C(C)C [SEQ. ID. NO: 41]		60.1 ± 9.82 nM			
CC[C@H](C)[C@@H](CC(=O)N[C@@H](CCC(N)=O)C(=O)N[C@@H](CC(C)C)C(=O)N[C@@H](CCSC)C(=O)N[C@@H](Cc1cnc[nH]1)C(=O)N[C@@H](CC(N)=O)C(=O)N[C@@H](CC(C)C)C(=O)NCC(=O)N[C@@H](CCCCN)C(=O)N[C@@H](Cc1cnc[nH]1)C(=O)N[C@@H](CC(C)C)C(=O)N[C@@H](CC(N)=O)C(=O)N[C@@H](CO)C(=O)N[C@@H](CCSC)C(=O)N[C@@H](CCC(=O)O)C(=O)N[C@@H](CCCNC(=N)N)C(=O)N[C@H](C(=O)N[C@@H](CCC(=O)O)C(=O)N[C@@H](Cc1c[nH]c2ccccc12)C(=O)N[C@@H](CC(C)C)C(=O)N[C@@H](CCCNC(=N)N)C(=O)N[C@@H](CCCCN)C(=O)N[C@@H](CCCCN)C(=O)N[C@@H](CC(C)C)C(=O)N[C@@H](CCC(N)=O)C(=O)N[C@@H](CC(=O)O)C(=O)N[C@H](C(=O)N[C@@H](Cc1cnc[nH]1)C(=O)N[C@@H](CC(N)=O)C(=O)N[C@@H](Cc1ccccc1)C(N)=O)C(C)C)C(C)C)NC(=O)[C@H](CCC(=O)O)NC(=O)[C@H](CO)NC(=O)[C@@H](NC(=O)[C@@H](N)CO)C(C)C [SEQ. ID. NO: 42]	3.4 ± 1.22 nM				

From patent US11780901B2, “Analogues of parathyroid hormone (1-34) that function as agonists of the parathyroid hormone receptor-1 and display modified activity profiles” (Wisconsin Alumni Research Foundation, priority 2013, dated 2023)
